# Assay results reported in ChEMBL document CHEMBL1667745, “Synthesis and antibacterial evaluation of novel clarithromycin derivatives with C-4″ elongated arylalkyl groups against macrolide-resistant strains” (2011).
# Experiments:
# Type in all cases: functional
# Streptococcus pyogenes [1] = assay: Antimicrobial activity against erythromycin-resistant Streptococcus pyogenes R2 by broth microdilution method
# Streptococcus pneumoniae [2] = assay: Antimicrobial activity against erythromycin-resistant Streptococcus pneumoniae A22072 expressing the mef gene by broth microdilution method
# Staphylococcus aureus [3] = assay: Antimicrobial activity against penicillin-susceptible Staphylococcus aureus P1 by broth microdilution method
# Streptococcus pneumoniae [4] = assay: Antimicrobial activity against erythromycin-resistant Streptococcus pneumoniae AB11 expressing the erm and mef gene by broth microdilution method
# Streptococcus pneumoniae [5] = assay: Antimicrobial activity against erythromycin-resistant Streptococcus pneumoniae B1 expressing the erm gene by broth microdilution method
# Streptococcus pyogenes [6] = assay: Antimicrobial activity against erythromycin-susceptible Streptococcus pyogenes S2 by broth microdilution method
# Staphylococcus aureus [7] = assay: Antimicrobial activity against erythromycin-susceptible Staphylococcus aureus ATCC 25923 by broth microdilution method
# Streptococcus pneumoniae [8] = assay: Antimicrobial activity against erythromycin-susceptible Streptococcus pneumoniae ATCC 49619 by broth microdilution method
SMILES,MIC (Streptococcus pyogenes [1]) [µg/mL],MIC (Streptococcus pneumoniae [2]) [µg/mL],MIC (Staphylococcus aureus [3]) [µg/mL],MIC (Streptococcus pneumoniae [4]) [µg/mL],MIC (Streptococcus pneumoniae [5]) [µg/mL],MIC (Streptococcus pyogenes [6]) [µg/mL],MIC (Staphylococcus aureus [7]) [µg/mL],MIC (Streptococcus pneumoniae [8]) [µg/mL]
CC[C@H]1OC(=O)[C@H](C)[C@@H](O[C@H]2C[C@@](C)(OC)[C@@H](OC(=O)NCc3ccccc3)[C@H](C)O2)[C@H](C)[C@@H](O[C@@H]2O[C@H](C)C[C@H](N(C)C)[C@H]2O)[C@](C)(OC)C[C@@H](C)C(=O)[C@H](C)[C@@H](O)[C@]1(C)O,16,0.25,1,8,4,0.12,0.25,0.25
CC[C@H]1OC(=O)[C@H](C)[C@@H](O[C@H]2C[C@@](C)(OC)[C@@H](OC(=O)NCc3ccc(F)cc3)[C@H](C)O2)[C@H](C)[C@@H](O[C@@H]2O[C@H](C)C[C@H](N(C)C)[C@H]2O)[C@](C)(OC)C[C@@H](C)C(=O)[C@H](C)[C@@H](O)[C@]1(C)O,0.5,0.5,2,8,4,0.03,0.12,0.06
CC[C@H]1OC(=O)[C@H](C)[C@@H](O[C@H]2C[C@@](C)(OC)[C@@H](OC(=O)NCc3ccc(OC)cc3)[C@H](C)O2)[C@H](C)[C@@H](O[C@@H]2O[C@H](C)C[C@H](N(C)C)[C@H]2O)[C@](C)(OC)C[C@@H](C)C(=O)[C@H](C)[C@@H](O)[C@]1(C)O,0.12,0.25,8,32,16,0.03,0.12,0.03
CC[C@H]1OC(=O)[C@H](C)[C@@H](O[C@H]2C[C@@](C)(OC)[C@@H](OC(=O)NCCc3ccc(O)cc3)[C@H](C)O2)[C@H](C)[C@@H](O[C@@H]2O[C@H](C)C[C@H](N(C)C)[C@H]2O)[C@](C)(OC)C[C@@H](C)C(=O)[C@H](C)[C@@H](O)[C@]1(C)O,0.25,4,16,128,128,0.03,0.25,0.12
CC[C@H]1OC(=O)[C@H](C)[C@@H](O[C@H]2C[C@@](C)(OC)[C@@H](OC(=O)NCCc3ccccc3Cl)[C@H](C)O2)[C@H](C)[C@@H](O[C@@H]2O[C@H](C)C[C@H](N(C)C)[C@H]2O)[C@](C)(OC)C[C@@H](C)C(=O)[C@H](C)[C@@H](O)[C@]1(C)O,0.5,0.5,0.25,32,16,0.03,0.12,0.06
CC[C@H]1OC(=O)[C@H](C)[C@@H](O[C@H]2C[C@@](C)(OC)[C@@H](OC(=O)NCCc3ccccc3)[C@H](C)O2)[C@H](C)[C@@H](O[C@@H]2O[C@H](C)C[C@H](N(C)C)[C@H]2O)[C@](C)(OC)C[C@@H](C)C(=O)[C@H](C)[C@@H](O)[C@]1(C)O,0.25,1,0.06,64,16,0.03,0.12,0.03
CC[C@H]1OC(=O)[C@H](C)[C@@H](O[C@H]2C[C@@](C)(OC)[C@@H](OC(=O)NCCc3ccc4c(c3)OCO4)[C@H](C)O2)[C@H](C)[C@@H](O[C@@H]2O[C@H](C)C[C@H](N(C)C)[C@H]2O)[C@](C)(OC)C[C@@H](C)C(=O)[C@H](C)[C@@H](O)[C@]1(C)O,0.5,0.25,0.5,64,32,0.5,0.25,0.06
CC[C@H]1OC(=O)[C@H](C)[C@@H](O[C@H]2C[C@@](C)(OC)[C@@H](OC(=O)NCCCC(=O)NCc3ccccc3)[C@H](C)O2)[C@H](C)[C@@H](O[C@@H]2O[C@H](C)C[C@H](N(C)C)[C@H]2O)[C@](C)(OC)C[C@@H](C)C(=O)[C@H](C)[C@@H](O)[C@]1(C)O,64,0.5,4,0.25,2,0.25,0.12,0.03
CC[C@H]1OC(=O)[C@H](C)[C@@H](O[C@H]2C[C@@](C)(OC)[C@@H](OC(=O)NCCCC(=O)NCc3ccc(F)cc3)[C@H](C)O2)[C@H](C)[C@@H](O[C@@H]2O[C@H](C)C[C@H](N(C)C)[C@H]2O)[C@](C)(OC)C[C@@H](C)C(=O)[C@H](C)[C@@H](O)[C@]1(C)O,16,0.25,1,2,1,0.25,0.12,0.03
CC[C@H]1OC(=O)[C@H](C)[C@@H](O[C@H]2C[C@@](C)(OC)[C@@H](OC(=O)NCCCC(=O)NCc3ccc(OC)cc3)[C@H](C)O2)[C@H](C)[C@@H](O[C@@H]2O[C@H](C)C[C@H](N(C)C)[C@H]2O)[C@](C)(OC)C[C@@H](C)C(=O)[C@H](C)[C@@H](O)[C@]1(C)O,0.5,0.25,8,1,0.06,0.03,0.12,0.03
CC[C@H]1OC(=O)[C@H](C)[C@@H](O[C@H]2C[C@@](C)(OC)[C@@H](OC(=O)NCCCC(=O)NCCc3ccc(O)cc3)[C@H](C)O2)[C@H](C)[C@@H](O[C@@H]2O[C@H](C)C[C@H](N(C)C)[C@H]2O)[C@](C)(OC)C[C@@H](C)C(=O)[C@H](C)[C@@H](O)[C@]1(C)O,8,0.5,9,1,0.25,0.5,0.5,0.03
CC[C@H]1OC(=O)[C@H](C)[C@@H](O[C@H]2C[C@@](C)(OC)[C@@H](OC(=O)NCCCC(=O)NCCc3ccccc3Cl)[C@H](C)O2)[C@H](C)[C@@H](O[C@@H]2O[C@H](C)C[C@H](N(C)C)[C@H]2O)[C@](C)(OC)C[C@@H](C)C(=O)[C@H](C)[C@@H](O)[C@]1(C)O,1,1,32,32,32,0.03,0.25,0.03
CCCNC(=O)O[C@H]1[C@H](C)O[C@@H](O[C@H]2[C@H](C)[C@@H](O[C@@H]3O[C@H](C)C[C@H](N(C)C)[C@H]3O)[C@](C)(OC)C[C@@H](C)C(=O)[C@H](C)[C@@H](O)[C@](C)(O)[C@@H](CC)OC(=O)[C@@H]2C)C[C@@]1(C)OC,1,2,16,32,64,0.5,0.25,0.25
C=CCNC(=O)O[C@H]1[C@H](C)O[C@@H](O[C@H]2[C@H](C)[C@@H](O[C@@H]3O[C@H](C)C[C@H](N(C)C)[C@H]3O)[C@](C)(OC)C[C@@H](C)C(=O)[C@H](C)[C@@H](O)[C@](C)(O)[C@@H](CC)OC(=O)[C@@H]2C)C[C@@]1(C)OC,–,–,32,–,–,0.03,0.25,0.25
CCCCNC(=O)O[C@H]1[C@H](C)O[C@@H](O[C@H]2[C@H](C)[C@@H](O[C@@H]3O[C@H](C)C[C@H](N(C)C)[C@H]3O)[C@](C)(OC)C[C@@H](C)C(=O)[C@H](C)[C@@H](O)[C@](C)(O)[C@@H](CC)OC(=O)[C@@H]2C)C[C@@]1(C)OC,4,1,8,64,64,0.25,0.25,0.25
CCCCCNC(=O)O[C@H]1[C@H](C)O[C@@H](O[C@H]2[C@H](C)[C@@H](O[C@@H]3O[C@H](C)C[C@H](N(C)C)[C@H]3O)[C@](C)(OC)C[C@@H](C)C(=O)[C@H](C)[C@@H](O)[C@](C)(O)[C@@H](CC)OC(=O)[C@@H]2C)C[C@@]1(C)OC,0.12,0.25,16,128,32,0.03,0.25,0.06
CC[C@H]1OC(=O)[C@H](C)[C@@H](O[C@H]2C[C@@](C)(OC)[C@@H](OC(=O)NCCCC(=O)NC3CCCCC3)[C@H](C)O2)[C@H](C)[C@@H](O[C@@H]2O[C@H](C)C[C@H](N(C)C)[C@H]2O)[C@](C)(OC)C[C@@H](C)C(=O)[C@H](C)[C@@H](O)[C@]1(C)O,8,2,8,64,32,0.25,0.5,0.03
CC[C@H]1OC(=O)[C@H](C)[C@@H](O[C@H]2C[C@@](C)(OC)[C@@H](OC(=O)NCCCC(=O)NC(C)C)[C@H](C)O2)[C@H](C)[C@@H](O[C@@H]2O[C@H](C)C[C@H](N(C)C)[C@H]2O)[C@](C)(OC)C[C@@H](C)C(=O)[C@H](C)[C@@H](O)[C@]1(C)O,16,8,8,128,128,0.5,0.25,0.03
C=CCNC(=O)CCCNC(=O)O[C@H]1[C@H](C)O[C@@H](O[C@H]2[C@H](C)[C@@H](O[C@@H]3O[C@H](C)C[C@H](N(C)C)[C@H]3O)[C@](C)(OC)C[C@@H](C)C(=O)[C@H](C)[C@@H](O)[C@](C)(O)[C@@H](CC)OC(=O)[C@@H]2C)C[C@@]1(C)OC,–,–,8,–,–,0.03,0.25,0.03
C=CCNC(=O)CCCCCNC(=O)O[C@H]1[C@H](C)O[C@@H](O[C@H]2[C@H](C)[C@@H](O[C@@H]3O[C@H](C)C[C@H](N(C)C)[C@H]3O)[C@](C)(OC)C[C@@H](C)C(=O)[C@H](C)[C@@H](O)[C@](C)(O)[C@@H](CC)OC(=O)[C@@H]2C)C[C@@]1(C)OC,–,–,16,–,–,0.5,0.25,0.03
